In brackets after ≈: the same amount, converted by molar mass. Where two headings read alike, the source gives them in different places.
Columns and labels:
Experiment in all cases: Calcein AM viability assay, dilution-series retest
BJ primary cells = format: cell-based, human; conditions: Homo sapiens, 48 h, read-out: concentration required to achieve 50% inhibition of calcein AM staining (IC50), BJ
Source text: (§1) Described here is work carried out to identify compounds with increased potency or activity in the presence of hTERT, LT, ST, E6, E7 or RAS^V12. Engineered cell lines with these genetic elements were used to screen […] compounds, including 20,000 compounds from a combinatorial library, 1,990 compounds from the National Cancer Institute diversity collection, and 1,540 biologically active known compounds that were selected and purchased by Applicant and formatted into a screenable collection. The primary screen tested (in quadruplicate) the effect of treating tumorigenic BJ-TERT/LT/ST/RAS^V12 engineered tumorigenic cells with each compound for 48 hours at a concentration of 4 μg/mL, corresponding to 10 μM for a compound with a molecular weight of 400, which is the approximate median molecular weight of the libraries. Cell viability was measured using the dye calcein acetoxymethyl ester (calcein AM) (Wang et al., 1993, Hum. Immunol. 3 7, 264-270), which is a non-fluorescent compound that freely diffuses into cells. In live cells, calcein AM is cleaved by intracellular esterases, forming the anionic fluorescent derivative calcein, which cannot diffuse out of live cells. […] The IC50 value (concentration required to inhibit 50% of the calcein AM signal) was calculated for each compound in each cell line (Table 1). […] Following is a more detailed analysis of these nine compounds.
(§2) Calcein acetoxylmethyl ester (AM) is a cell membrane-permeable, non-fluorescent compound that is cleaved by intracellular esterases to form the anionic, cell-impermeable, fluorescent compound calcein. Viable cells are stained by calcein because of the presence of intracellular esterases and because the intact plasma membrane prevents fluorescent calcein from leaking out of cells (Wang et al., 1993, supra). Cells were seeded in 384-well plates using a Zymark Sciclone ALH, treated with each compound in triplicate at 4 μg/mL in the primary screen for two days, washed with phosphate-buffered saline on a Packard Minitrak with a 384-well washer and incubated for four hours with 0.7 μg/mL calcein (Molecular Probes). Total fluorescence intensity in each well was recorded on a Packard Fusion platereader, and converted to a percent inhibition of signal by subtracting the instrument background and dividing by the average signal obtained when cells were not treated with any compound.
(§3) Replica daughter plates were prepared with a Zymark Sciclone ALH and integrated Twister II by diluting stock plates 50 fold in medium lacking serum and pen/strep to obtain a compound concentration in daughter plates of 80 μg/ml with 2% DMSO. Assay plates were prepared by seeding cells in black, clear bottom 384-well plates in columns 1-23 (6000 cells/well in 57 μl) using a syringe bulk dispenser. Columns 3-22 were treated with compounds from a daughter library plate by transferring 3 μl from the daughter library plate using 384-position fixed cannula array. The final compound concentrations in assay plates were thus 4 μg/ml. The assay plates were incubated for 48 hours at 37° C. in humidified incubator containing 5% CO2. Plate processing for the calcein AM viability assay was performed using an integrated Minitrak/Sidetrak robotic system from Packard Bioscience (Perkin Elmer). Assay plates were washed with phosphate buffered saline, and 20 μl of calcein AM (0.7 μg/ml) per well was added. Plates were incubated at room temperature for 4 hours. Fluorescence intensity was determined using a Fusion platereader with filters centered on an excitation of 485 nm and an emission of 535 nm.
(§4) Compounds to be retested were purchased from manufacturers. Stocks were prepared in DMSO at a concentration of 1 mg/ml in 384-well polypropylene plates with a 16-point, two-fold dilution dose curve of each compound in a column, in duplicates. Column 1-2 and 23-24 were left empty for controls. […]

[1] = tested on: BJ-TERT/LT/RAS^V12/ST cells; format: cell-based, human; conditions: Homo sapiens, 48 h, read-out: IC50, BJ-TERT/LT/Ras^V12/ST
Source text: as §1, §2, §3, §4

BJ-TERT/LT/ST cells = format: cell-based, human; conditions: Homo sapiens, 48 h, read-out: IC50, BJ-TERT/LT/ST
Source text: as §1, §2, §3, §4

BJ-TERT/LT/RAS^V12 cells = format: cell-based; conditions: Homo sapiens, 48 h, read-out: IC50, BJ-TERT/LT/Ras^V12
Source text: as §1, §2, §3, §4

BJ-TERT cells = format: cell-based; conditions: Homo sapiens, 48 h, read-out: IC50, BJ-TERT
Source text: as §1, §2, §3, §4

[2] = tested on: TIP5/TERT/E6/E7/ST/RAS^V12 cells; format: cell-based, human; conditions: Homo sapiens, 48 h, read-out: IC50, TIP5-TERT/E6E7 ST/Ras^V12
Source text: In a third series, cell lines derived from independently prepared human TIP5 foreskin fibroblasts created by introducing cDNA constructs encoding hTERT, LT, ST and RASV12 (Lessnick et al., 2002, Cancer Cell 1, 393-401) were used. These cell lines were called, respectively: TIP5/TERT, TIP5/TERT/LT, TIP5/TERT/LT/ST, and TIP5/TERT/LT/ST/RAS^V12. In a fourth series, cell lines derived from TIP5 fibroblasts created by introducing cDNA constructs encoding hTERT, E6, E7, ST and RAS^V12 were used. These cell lines were named, respectively: TIP5/TERT/E6, TIP5/TERT/E6/E7, TIP5/TERT/E6/E7/ST, and TIP5/TERT/E6/E7/ST/RAS^V12. In this series, HPV E6 and E7, which inactivate p53 and RB, respectively, serve a similar function as LT in the previous series. However, by using HPV E6 and E7, Applicants were able to observe the effects of inactivating, separately and independently, p53 and RB. Results of a large-scale screen for compounds that display selective killing of these engineered tumorigenic cell lines are described in the examples that follow.
as §2, §3
Compounds to be retested were purchased from manufacturers. Stocks were prepared in DMSO at a concentration of 1 mg/ml in 384-well polypropylene plates with a 16-point, two-fold dilution dose curve of each compound in a column, in duplicates. Column 1-2 and 23-24 were left empty for controls. Daughter retest plates were prepared from stock retest plate by diluting 66.6 fold in DMEM in 384-well deep-deep well plates (4.5 μl transfer into 300 μl). Cells were seeded at a density of 6000 per well in 40 μl, and 20 μl was added from a daughter retest plate. The plates were incubated for two days at 37° C. with 5% CO2.
Mean RFU (relative fluorescence units) for untreated cells was calculated by averaging columns 1, 2, and 23 (wells with cells but lacking compounds). […]

[3] = BJ cells, 16-point two-fold dilution, two days
[4] = BJ-TERT/LT/Ras^V12/ST cells, 16-point two-fold dilution, two days
[5] = BJ-TERT/LT/ST cells, 16-point two-fold dilution, two days
[6] = BJ-TERT/LT/Ras^V12 cells, 16-point two-fold dilution, two days
[7] = BJ-TERT cells, 16-point two-fold dilution, two days
[8] = TIP5-TERT/E6E7/ST/Ras^V12 cells, 16-point two-fold dilution, two days

Compound | IC50 (BJ primary cells; [3]) [µg/mL] | IC50 [1, 4] [µg/mL] | IC50 (BJ-TERT/LT/ST cells; [5]) [µg/mL] | IC50 (BJ-TERT/LT/RAS^V12 cells; [6]) [µg/mL] | IC50 (BJ-TERT cells; [7]) [µg/mL] | IC50 [2, 8] [µg/mL] | IC50 (BJ primary cells; BJ) [µg/mL] | IC50 [1] [µg/mL] | IC50 (BJ-TERT/LT/ST cells) [µg/mL] | IC50 (BJ-TERT/LT/RAS^V12 cells) [µg/mL] | IC50 (BJ-TERT cells) [µg/mL] | IC50 [2] [µg/mL]
O=C1c2c(O)ccc(O)c2C(=O)c2c(NCCNCCO)ccc(NCCNCCO)c21 [Mitoxantrone] | 5 (≈ 11.2 µM) | 0.312 (≈ 0.702 µM) | 0.312 (≈ 0.702 µM) | 1.25 (≈ 2.81 µM) | 1.25 (≈ 2.81 µM) | 1.25 (≈ 2.81 µM) | – | – | – | – | – | –
CCOc1ccccc1-n1c(C(C)N2CCN(C(=O)COc3ccc(Cl)cc3)CC2)nc2ccccc2c1=O (stereo not drawn) [Erastin] | > 5 | 1.25 (≈ 2.28 µM) | > 5 | > 5 | > 5 | 5 (≈ 9.14 µM) | – | – | – | – | – | –
CC[C@@]1(O)C(=O)OCc2c1cc1n(c2=O)Cc2cc3ccccc3nc2-1 [Camptothecin] | > 5 | 0.0195 (≈ 0.056 µM) | 1.25 (≈ 3.59 µM) | 1.25 (≈ 3.59 µM) | > 5 | 0.156 (≈ 0.448 µM) | – | – | – | – | – | –
COc1ccc(C[C@H]2C(=O)N[C@@H](C)C(=O)N(C)[C@@H]3C(=O)N(C)[C@@H](Cc4ccc(O)c(c4)Oc4ccc(cc4)[C@@H]3O)C(=O)N[C@H](C)C(=O)N[C@@H](C)C(=O)N2C)cc1 [Bouvardin] | – | – | – | – | – | – | 0.312 (≈ 0.404 µM) | 0.0195 (≈ 0.0252 µM) | 0.0195 (≈ 0.0252 µM) | 0.078 (≈ 0.101 µM) | 0.078 (≈ 0.101 µM) | 0.078 (≈ 0.101 µM)
CS[C@H]1SC[C@H]2C(=O)N(C)[C@@H](C(C)C)C(=O)OC[C@@H](NC(=O)c3cnc4ccccc4n3)C(=O)N[C@@H](C)C(=O)N(C)[C@@H]1C(=O)N(C)[C@@H](C(C)C)C(=O)OC[C@@H](NC(=O)c1cnc3ccccc3n1)C(=O)N[C@@H](C)C(=O)N2C [Echinomycin] | – | – | – | – | – | – | > 5 | 0.0012 (≈ 0.00109 µM) | 0.0048 (≈ 0.00436 µM) | 0.0048 (≈ 0.00436 µM) | 0.312 (≈ 0.283 µM) | 0.0048 (≈ 0.00436 µM)
COc1cccc2c1C(=O)c1c(O)c3c(c(O)c1C2=O)C[C@@](O)(C(C)=O)C[C@@H]3O[C@H]1C[C@H](N)[C@H](O)[C@H](C)O1 [Daunorubicin] | – | – | – | – | – | – | 5 (≈ 9.48 µM) | 0.625 (≈ 1.18 µM) | 0.312 (≈ 0.591 µM) | 1.25 (≈ 2.37 µM) | 1.25 (≈ 2.37 µM) | 0.625 (≈ 1.18 µM)
COc1cccc2c1C(=O)c1c(O)c3c(c(O)c1C2=O)C[C@@](O)(C(=O)CO)C[C@@H]3O[C@H]1C[C@H](N)[C@H](O)[C@H](C)O1 [Doxorubicin] | > 5 | 1.25 (≈ 2.3 µM) | 0.312 (≈ 0.574 µM) | 1.25 (≈ 2.3 µM) | 1.25 (≈ 2.3 µM) | 1.25 (≈ 2.3 µM) | – | – | – | – | – | –
NC(=O)c1cn([C@@H]2O[C@H](CO)[C@@H](O)[C@H]2O)c2ncnc(N)c12 [Sangivamycin] | – | – | – | – | – | – | 0.312 (≈ 1.01 µM) | 0.078 (≈ 0.252 µM) | 0.195 (≈ 0.63 µM) | 0.078 (≈ 0.252 µM) | 0.039 (≈ 0.126 µM) | 0.078 (≈ 0.252 µM)

Reference: patent US20050032124A1, “Identification of genotype-selective agents for treating Huntington's disease” (priority 2003, published 2005)
